Laboratory results as given in ChEMBL document CHEMBL1201862, “PubChem BioAssay data set” (2004).
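Each compound was tested at five concentrations against cells in 96-well plates for 48 hours. At the GI50, growth is halved.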 Calls of active or inactive are those of the source. Cut-off read from the data, not from the text of the source: active = GI50 up to about 1.1 µM and inactive = higher.

How the values were obtained:
Assay in all cases: DTP human tumour cell line panel, 48 h
K562 = system: K562
786-0 = system: 786-0
CCRF-CEM = system: CCRF-CEM
Malme-3M = system: Malme-3M
MDA-N = system: MDA-N
RXF 393 = system: RXF 393
UACC-62 = system: UACC-62
T47D = system: T47D
NCI-H460 = system: NCI-H460
OVCAR-4 = system: OVCAR-4
HT-29 = system: HT-29
NCI-H226 = system: NCI-H226
RPMI-8226 = system: RPMI-8226
SNB-19 = system: SNB-19
CAKI-1 = system: CAKI-1
MDA-MB-435 = system: MDA-MB-435
SR = system: SR
HL-60 = system: HL-60
SF-268 = system: SF-268
TK-10 = system: TK-10

CC(=O)OC1=CC(n2cc(F)c(=O)[nH]c2=O)OC(C)C1=O (configuration not stated)
GI50 (K562): 57 µM (inactive)
GI50 (786-0): 26.4 µM (inactive)
GI50 (CCRF-CEM): 75 µM (inactive)
GI50 (Malme-3M): 19.6 µM (inactive)
GI50 (MDA-N): 15.2 µM (inactive)
GI50 (RXF 393): 55.3 µM (inactive)
GI50 (UACC-62): 24.9 µM (inactive)
GI50 (T47D): 16.7 µM (inactive)
GI50 (NCI-H460): 4.59 µM (inactive)
GI50 (OVCAR-4): > 82.2 µM (inactive)
GI50 (HT-29): 10.7 µM (inactive)
GI50 (NCI-H226): > 97.3 µM (inactive)
GI50 (RPMI-8226): 26.5 µM (inactive)
GI50 (SNB-19): 61.9 µM (inactive)
GI50 (CAKI-1): > 52.2 µM (inactive)
GI50 (MDA-MB-435): 11.4 µM (inactive)
GI50 (SR): 26.1 µM (inactive)
GI50 (HL-60): 21.4 µM (inactive)
GI50 (SF-268): 81.5 µM (inactive)
GI50 (TK-10): > 77.4 µM (inactive)

NC(=O)C(=CNC(N)=S)C(N)=O
GI50 (K562): > 100 µM (inactive)
GI50 (786-0): > 100 µM (inactive)
GI50 (CCRF-CEM): > 100 µM (inactive)
GI50 (Malme-3M): > 100 µM (inactive)
GI50 (MDA-N): > 100 µM (inactive)
GI50 (RXF 393): > 100 µM (inactive)
GI50 (UACC-62): > 100 µM (inactive)
GI50 (T47D): > 100 µM (inactive)
GI50 (NCI-H460): > 100 µM (inactive)
GI50 (OVCAR-4): > 100 µM (inactive)
GI50 (HT-29): > 100 µM (inactive)
GI50 (NCI-H226): > 100 µM (inactive)
GI50 (RPMI-8226): > 100 µM (inactive)
GI50 (SNB-19): > 100 µM (inactive)
GI50 (CAKI-1): > 100 µM (inactive)
GI50 (MDA-MB-435): > 100 µM (inactive)
GI50 (SR): > 100 µM (inactive)
GI50 (HL-60): > 100 µM (inactive)
GI50 (SF-268): > 100 µM (inactive)

C/C(=C/CNc1ncnc2c1ncn2CCC(=O)O)CO
GI50 (K562): > 100 µM (inactive)
GI50 (786-0): > 100 µM (inactive)
GI50 (CCRF-CEM): > 100 µM (inactive)
GI50 (Malme-3M): > 100 µM (inactive)
GI50 (MDA-N): > 100 µM (inactive)
GI50 (RXF 393): > 100 µM (inactive)
GI50 (UACC-62): > 100 µM (inactive)
GI50 (T47D): > 100 µM (inactive)
GI50 (NCI-H460): > 100 µM (inactive)
GI50 (OVCAR-4): > 100 µM (inactive)
GI50 (HT-29): > 100 µM (inactive)
GI50 (NCI-H226): > 100 µM (inactive)
GI50 (RPMI-8226): > 100 µM (inactive)
GI50 (SNB-19): > 100 µM (inactive)
GI50 (CAKI-1): > 100 µM (inactive)
GI50 (MDA-MB-435): > 100 µM (inactive)
GI50 (SR): > 100 µM (inactive)
GI50 (HL-60): > 100 µM (inactive)
GI50 (SF-268): > 100 µM (inactive)
GI50 (TK-10): > 100 µM (inactive)

CC1=NN(C(=O)CC(=O)Nc2ccccc2C)C(=O)C1/N=N\c1ccc(S(=O)(=O)c2ccc(/N=N/C3C(=O)N(C(=O)CC(=O)Nc4ccccc4C)N=C3C)cc2)cc1 (configuration not stated)
GI50 (K562): > 100 µM (inactive)
GI50 (786-0): > 100 µM (inactive)
GI50 (CCRF-CEM): > 100 µM (inactive)
GI50 (Malme-3M): > 100 µM (inactive)
GI50 (MDA-N): > 100 µM (inactive)
GI50 (RXF 393): > 100 µM (inactive)
GI50 (UACC-62): > 100 µM (inactive)
GI50 (T47D): > 100 µM (inactive)
GI50 (NCI-H460): > 100 µM (inactive)
GI50 (OVCAR-4): > 100 µM (inactive)
GI50 (HT-29): > 100 µM (inactive)
GI50 (NCI-H226): > 100 µM (inactive)
GI50 (RPMI-8226): > 100 µM (inactive)
GI50 (SNB-19): > 100 µM (inactive)
GI50 (CAKI-1): > 100 µM (inactive)
GI50 (MDA-MB-435): > 100 µM (inactive)
GI50 (SR): > 100 µM (inactive)
GI50 (HL-60): > 100 µM (inactive)
GI50 (SF-268): > 100 µM (inactive)
GI50 (TK-10): > 100 µM (inactive)

CCOC(=O)c1c(C)[n+]([O-])c2cc(Cl)c(Cl)cc2[n+]1[O-]
GI50 (K562): 31.4 µM (inactive)
GI50 (786-0): 28.3 µM (inactive)
GI50 (CCRF-CEM): 18.5 µM (inactive)
GI50 (MDA-N): 31 µM (inactive)
GI50 (RXF 393): 17.2 µM (inactive)
GI50 (UACC-62): 15.8 µM (inactive)
GI50 (T47D): 16 µM (inactive)
GI50 (NCI-H460): 16.3 µM (inactive)
GI50 (OVCAR-4): 17.5 µM (inactive)
GI50 (HT-29): 33.5 µM (inactive)
GI50 (NCI-H226): 12 µM (inactive)
GI50 (RPMI-8226): 14.4 µM (inactive)
GI50 (SNB-19): 36.8 µM (inactive)
GI50 (CAKI-1): 18 µM (inactive)
GI50 (MDA-MB-435): 18.6 µM (inactive)
GI50 (SR): 8.02 µM (inactive)
GI50 (HL-60): < 0.01 µM (active)
GI50 (SF-268): 24.5 µM (inactive)
GI50 (TK-10): 18.1 µM (inactive)

COc1cc(C(=O)NC2CCc3cc(OC)c(OC)c(OC)c3-c3ccc(OC)c(=O)cc32)cc(OC)c1OC (configuration not stated)
GI50 (K562): 0.0403 µM (active)
GI50 (786-0): 0.288 µM (active)
GI50 (CCRF-CEM): 0.0339 µM (active)
GI50 (Malme-3M): 0.141 µM (active)
GI50 (MDA-N): 0.0202 µM (active)
GI50 (RXF 393): 0.466 µM (active)
GI50 (UACC-62): 0.0711 µM (active)
GI50 (T47D): 18.8 µM (inactive)
GI50 (NCI-H460): 0.143 µM (active)
GI50 (OVCAR-4): 15.8 µM (inactive)
GI50 (HT-29): 0.0467 µM (active)
GI50 (NCI-H226): 0.444 µM (active)
GI50 (RPMI-8226): 0.0279 µM (active)
GI50 (SNB-19): 0.138 µM (active)
GI50 (CAKI-1): 1.15 µM (inactive)
GI50 (MDA-MB-435): 0.0292 µM (active)
GI50 (SR): 0.0249 µM (active)
GI50 (HL-60): 0.0259 µM (active)
GI50 (SF-268): 0.0828 µM (active)
GI50 (TK-10): 1.49 µM (inactive)

c1ccc2c(c1)-c1nc3ccccc3cc1C2N1CCOCC1 (configuration not stated)
GI50 (K562): > 100 µM (inactive)
GI50 (786-0): > 100 µM (inactive)
GI50 (CCRF-CEM): 28.4 µM (inactive)
GI50 (Malme-3M): > 100 µM (inactive)
GI50 (MDA-N): > 100 µM (inactive)
GI50 (RXF 393): > 100 µM (inactive)
GI50 (UACC-62): 97.5 µM (inactive)
GI50 (T47D): 45.8 µM (inactive)
GI50 (OVCAR-4): 47.6 µM (inactive)
GI50 (HT-29): 92.5 µM (inactive)
GI50 (NCI-H226): > 100 µM (inactive)
GI50 (RPMI-8226): 72.1 µM (inactive)
GI50 (SNB-19): > 100 µM (inactive)
GI50 (CAKI-1): > 100 µM (inactive)
GI50 (MDA-MB-435): > 100 µM (inactive)
GI50 (SR): > 100 µM (inactive)
GI50 (HL-60): 34.5 µM (inactive)
GI50 (SF-268): 61.2 µM (inactive)
GI50 (TK-10): > 100 µM (inactive)
